Measured values reported in ChEMBL document CHEMBL6134844, “Development of Next-Generation Antimalarial Acridones with Radical Cure Potential” (J Med Chem, 2025).

What was measured:
[1] = system: Plasmodium falciparum; assay: Antiplasmodial activity against asexual blood-stage (ABS) MDR Plasmodium falciparum Dd2 infected in human erythrocytes assessed as reduction in fluorescence measured after 72 hrs by Malaria SYBR Green I-based Fluorescence (MSF) assay; assay type: functional, organism-based; settings: Dd2, Erythrocyte
[2] = (§1) Selectivity index, ratio of CC50 for Macaca mulatta hepatocytes to IC50 for antiplasmodial activity against schizont Plasmodium cynomolgi B strain infected in Macaca mulatta hepatocytes incubated with sporozoite containing salivary gland homogenate obtained from dissected Anopheles dirus mosquitoes (infected with Plasmodium cynomolgi B strain) treatment started on day 4 post infection and continued daily for 4 days into fresh changed media until day 8 assessed as Liver stage (LS) activity by measuring prophylactic mode by immunofluorescent staining analysis; assay type: toxicity, cell-based; settings: rhesus monkey, read-out: Selectivity Index
[3] = human, microsomes, 1 h
[4] = system: Plasmodium cynomolgi; assay: as §1, with “Antiplasmodial” for “Selectivity index, ratio of CC50 for Macaca mulatta hepatocytes to IC50 for antiplasmodial”, “hypnozoite” for “schizont”; assay type: functional, organism-based; settings: Hepatocyte
[5] = system: Plasmodium cynomolgi; assay: as §1, with “Antiplasmodial” for “Selectivity index, ratio of CC50 for Macaca mulatta hepatocytes to IC50 for antiplasmodial”; assay type: functional, organism-based; settings: Hepatocyte
[6] = system: HepG2; assay: Cytotoxicity against human HepG2 cells assessed as cell viability measured after 48 hrs by MTT assay; assay type: functional, cell-based; settings: HepG2, 48 h
[7] = system: Plasmodium falciparum; assay: Antiplasmodial activity against asexual blood-stage (ABS) ATV-resistant clinical isolate Plasmodium falciparum Tm90-C2B infected in human erythrocytes assessed as reduction in fluorescence measured after 72 hrs by Malaria SYBR Green I-based Fluorescence (MSF) assay; assay type: functional, organism-based; settings: Erythrocyte
[8] = system: Plasmodium cynomolgi; assay: as §1, with “Antiplasmodial” for “Selectivity index, ratio of CC50 for Macaca mulatta hepatocytes to IC50 for antiplasmodial”, “radical cure” for “prophylactic”; assay type: functional, organism-based; settings: Hepatocyte
[9] = mouse, microsomes, 1 h
[10] = as §1, with “hypnozoite” for “schizont”; assay type: toxicity, cell-based; settings: rhesus monkey, read-out: Selectivity Index
[11] = system: Plasmodium falciparum; assay: Antiplasmodial activity against asexual blood-stage (ABS) CQ-sensitive Plasmodium falciparum D6 infected in human erythrocytes assessed as reduction in fluorescence measured after 72 hrs by Malaria SYBR Green I-based Fluorescence (MSF) assay; assay type: functional, organism-based; settings: D6, Erythrocyte
[12] = Toxicity in CF1 mouse infected with asexual blood-stage (ABS) Plasmodium yoelii MRA-428 assessed as behavioural change at 0.3 to 30 mg/kg, po treated 24 hrs post infection measured after 4 days; assay type: organism-based; settings: in vivo, dose 0.3-30 mg/kg
[13] = system: Plasmodium yoelii; assay: In vivo antiplasmodial activity against asexual blood-stage (ABS) Plasmodium yoelii MRA-428 infected in 4-day suppression CF1 mouse model assessed as reduction in parasitemia by measuring protection at 30 mg/kg, po treated 24 hrs post infection daily measured up to 28 days; assay type: functional, organism-based; settings: time <= 28.0 day
[14] = Toxicity in CF1 mouse infected with asexual blood-stage (ABS) Plasmodium yoelii MRA-428 assessed as clinical toxicity at 0.3 to 30 mg/kg, po treated 24 hrs post infection measured after 4 days; assay type: organism-based; settings: in vivo, dose 0.3-30 mg/kg
[15] = system: Plasmodium yoelii; assay: In vivo antiplasmodial activity against asexual blood-stage (ABS) Plasmodium yoelii MRA-428 infected in 4-day suppression CF1 mouse model assessed as reduction in parasitemia treated 24 hrs post infection daily measured on day 4; assay type: functional
[16] = system: Hepatocyte; assay: Cytotoxicity against Macaca mulatta hepatocytes assessed as cell viability measured after 48 hrs by MTT assay; assay type: toxicity, cell-based; settings: rhesus monkey, 48 h
[17] = system: Plasmodium cynomolgi; assay: as §1, with “Antiplasmodial” for “Selectivity index, ratio of CC50 for Macaca mulatta hepatocytes to IC50 for antiplasmodial”, “hypnozoite” for “schizont”, “radical cure” for “prophylactic”; assay type: functional, organism-based; settings: Hepatocyte
[18] = as §1, with “radical cure” for “prophylactic”; assay type: toxicity, cell-based; settings: rhesus monkey, read-out: Selectivity Index
[19] = Toxicity in CF1 mouse infected with asexual blood-stage (ABS) Plasmodium yoelii MRA-428 assessed as hyperactivity at 0.3 to 30 mg/kg, po treated 24 hrs post infection measured after 4 days; assay type: organism-based; settings: in vivo, 96 h, dose 0.3-30 mg/kg, time 4 day
[20] = Toxicity in CF1 mouse infected with asexual blood-stage (ABS) Plasmodium yoelii MRA-428 assessed as lethargy at 0.3 to 30 mg/kg, po treated 24 hrs post infection measured after 4 days; assay type: organism-based; settings: in vivo, 96 h, dose 0.3-30 mg/kg, time 4 day
[21] = Toxicity in CF1 mouse infected with asexual blood-stage (ABS) Plasmodium yoelii MRA-428 assessed as weight loss at 0.3 to 30 mg/kg, po treated 24 hrs post infection measured after 4 days; assay type: organism-based; settings: in vivo, 96 h, dose 0.3-30 mg/kg, time 4 day
[22] = Toxicity in CF1 mouse infected with asexual blood-stage (ABS) Plasmodium yoelii MRA-428 assessed as hunching at 0.3 to 30 mg/kg, po treated 24 hrs post infection measured after 4 days; assay type: organism-based; settings: in vivo, 96 h, dose 0.3-30 mg/kg, time 4 day
[23] = Toxicity in CF1 mouse infected with asexual blood-stage (ABS) Plasmodium yoelii MRA-428 assessed as ruffled hair at 0.3 to 30 mg/kg, po treated 24 hrs post infection measured after 4 days; assay type: organism-based; settings: in vivo, 96 h, dose 0.3-30 mg/kg, time 4 day
[24] = system: Plasmodium berghei; assay: In vivo antiplasmodial activity against luciferase expressing liver stage Plasmodium berghei ANKA MRA-868 sporozoites infected in Albino C57BL/6 mouse model assessed as blood stage infection at 40 mg/kg, po daily measured 72 hrs; assay type: functional, organism-based
[25] = as §1, with “hypnozoite” for “schizont”, “radical cure” for “prophylactic”; assay type: toxicity, cell-based; settings: rhesus monkey, read-out: Selectivity Index
[26] = system: Plasmodium berghei; assay: In vivo antiplasmodial activity against luciferase expressing liver stage Plasmodium berghei ANKA MRA-868 sporozoites infected in Albino C57BL/6 mouse model assessed as protection at 10 mg/kg, po daily measured 24 to 72 hrs by real-time In Vivo Imaging System (IVIS); assay type: functional; settings: time lower 24.0 hrs, time upper […]

| Structure (SMILES) | IC50 [1] [nM] | selectivity ratio at 96 h [2] | t1/2 [3] [h] | IC50 [4] [nM] | IC50 [5] [nM] | IC50 [6] [nM] | IC50 [7] [nM] | IC50 [8] [nM] | CLH [9] [µL/min/mg] | selectivity ratio at 96 h [10] | IC50 [11] [pM] | Activity [12] | Activity [14] | ED90 [15] [mg/kg] | CC50 [16] [nM] | IC50 [17] [nM] | selectivity ratio at 96 h [18] | Activity [19] | ED50 [15] [mg/kg] | selectivity ratio at 96 h [25] | other results |
| --- | --- | --- | --- | --- | --- | --- | --- | --- | --- | --- | --- | --- | --- | --- | --- | --- | --- | --- | --- | --- | --- |
| O=c1c2ccc(Oc3ccc(OC(F)(F)F)cc3)cc2[nH]c2cc(F)c(Cl)cc12 | 4.35 | > 33.3 | > 1 | 410 | 600 | > 200000 | 48.4 | 6550 | < 3.125 | > 48.8 | 4380 | Non-toxic | Non-toxic | 0.17 | > 20000 | > 20000 | > 3.05 |  |  |  | Activity [13]: Active; Out Of 4 - 3 Mouse Cured |
| O=c1c2c([nH]c3c(Oc4ccc(OC(F)(F)F)cc4)cccc13)CCCC2 | 83.8 | > 2.62 | > 1 | 13100 | 7630 | > 200000 | 219 | 17900 | 6.85 | > 1.53 | 57500 |  |  |  | > 20000 | > 20000 | > 1.12 | Non-toxic |  |  | Activity [20]: Non-toxic; Activity [21]: Non-toxic; Activity [22]: Non-toxic; Activity [23]: Non-toxic |
| O=c1c2c([nH]c3ccc(Oc4ccc(OC(F)(F)F)cc4)cc13)CCCC2 | 13.3 | > 40 |  | 3810 | 500 | > 200000 | 29.9 | > 20000 | 56.8 | > 5.25 | 7550 | Non-toxic | Non-toxic | 7.8 | > 20000 | > 20000 |  | Non-toxic | 1.8 |  | Activity [20]: Non-toxic; Activity [21]: Non-toxic; Activity [22]: Non-toxic; Activity [23]: Non-toxic |
| CCCCCCOc1ccc2c(=O)c3c([nH]c2c1)CCCC3 | 2.73 | > 7.09 |  | > 20000 | 2820 | > 200000 | 5.11 | > 20000 | 37.6 |  | 477 |  |  |  | > 20000 | > 20000 |  | Non-toxic |  |  | Activity [20]: Non-toxic; Activity [21]: Non-toxic; Activity [22]: Non-toxic; Activity [23]: Non-toxic; Activity [24]: Active; Out Of 5 - 5 Mouse Cured |
| O=c1c2ccc(Oc3cccc(OC(F)(F)F)c3)cc2[nH]c2cc(Cl)cc(F)c12 | 0.02 | > 667 |  | 560 | 30 | > 200000 | 8.6 | 16100 | 273 | > 35.7 | 70 | Non-toxic | Non-toxic | 0.9 | > 20000 | > 20000 | > 1.24 |  | 0.19 |  |  |
| O=c1c2c([nH]c3cc(Oc4cccc(OC(F)(F)F)c4)ccc13)CCCC2 | 0.537 | 16.8 | > 1 | 4640 | 600 | > 200000 | 4.38 | 6870 | 29.7 | 2.18 | 116 |  |  |  | 10100 | 7990 | 1.47 | Non-toxic |  | 1.25 | Activity [20]: Non-toxic; Activity [21]: Non-toxic; Activity [22]: Non-toxic; Activity [23]: Non-toxic |
| O=c1c2ccc(OCc3ccc(OC(F)(F)F)cc3)cc2[nH]c2cc(Cl)cc(F)c12 | 0.128 | 10.4 | > 1 | 470 | 80 | 177000 | 30.4 | 280 | < 3.125 | 1.76 | 0.041 | Non-toxic | Non-toxic | 0.55 | 830 | 470 | 2.96 |  | 0.1 | 1.77 |  |
| O=c1c2ccc(OCc3ccc(C(F)(F)F)cc3)cc2[nH]c2cc(Cl)cc(F)c12 | 0.182 | 15.2 | > 1 | 640 | 140 | 153000 | 34.9 | 810 | < 3.125 | 3.33 | 0.052 | Non-toxic | Non-toxic | 1.42 | 2130 | 910 | 2.63 |  | 0.32 | 2.34 |  |
| COc1cc(C)c2c(Oc3cccc(C(F)(F)F)c3)c(OC)cc(NC(C)CCCN)c2n1 (centres undefined) [TAFENOQUINE] |  | 380 |  | 170 | 40 |  |  | 5440 |  | 89.4 |  |  |  |  | 15200 | 7810 | 2.79 |  |  | 1.95 | Activity [26]: Not active; Out Of 5 - 0 Mouse Cured |
| CC(C)(C)OC(=O)N1CCC(Oc2ccc3c(=O)c4c(F)cc(Cl)cc4[nH]c3c2)CC1 | 0.295 | 43.4 | > 1 | 470 | 50 | 59900 | 271 | 670 | 58.5 | 4.62 | 0.7 | Non-toxic | Non-toxic | 0.72 | 2170 | 1780 | 3.24 |  | 0.34 | 1.22 |  |
| CCN(CC)CCCC(C)Nc1ccnc2cc(Cl)ccc12 (centres undefined) [CHLOROQUINE] |  |  |  |  |  |  |  |  |  |  |  | Non-toxic | Non-toxic |  |  |  |  |  |  |  |  |
| CC(C)(C)OC(=O)N1CCC(Oc2ccc3c(=O)c4c(F)cc(Cl)cc4[nH]c3c2)C1 (centres undefined) | 0.183 | 176 | > 1 | 670 | 70 | > 2500 | 113 | 960 | < 3.125 | 18.4 |  | Non-toxic | Non-toxic | 0.43 | 12300 | 2480 | 12.8 |  | 0.1 | 4.96 |  |
